Experimental data as given in patent US11952330B2, “Antibiotic ammonium compounds and methods for the treatment of bacterial infections” (priority 2019, dated 2024).

Tests used:
S. aureus = assay: MIC by broth dilution, S. aureus; type: cell-based; conditions: Staphylococcus aureus; Mueller-Hinton broth, overnight 37° C.; Table 1; read-out: MIC (μg/mL) S. aureus
Protocol: (§1) The antibacterial efficacy of the ammonium compounds was assessed. Minimum inhibitory concentrations (MICs) were determined by broth dilution method. Dilutions of each compound, ranging from 1 μg/mL to 256 μg/mL (final concentrations) were prepared in Mueller-Hinton broth. Compound dilutions were added to wells of a 96-well plate, with the concentration of the compound increasing 2-fold by row. Each well contained 5×10^5 CFU/ml of target bacterium in a total volume of 100 μl. Plates were incubated overnight at 37° C. The following day, plates were evaluated for a visual change in growth to determine the MIC. The concentration value corresponding to the first row that no longer had visible bacterial growth, as evaluated by turbidity in the wells, was recorded as the MIC. MIC values were representative of at least biological duplicates, each made up of technical triplicates. The antibacterial efficacy of ammonium compounds in the presence of human plasma was assessed. Minimum inhibitory concentrations (MICs) were determined by broth dilution method. Dilutions of each compound, ranging from 1 μg/mL to 256 μg/mL (final concentrations) were prepared in Mueller-Hinton broth. For the plasma containing samples, compound dilutions were made in Mueller-Hinton broth and supplemented with 5% (final %) human plasma (esterases). Compound dilutions were added to wells of a 96-well plate, with the concentration of the compound increasing 2-fold by row. Each well contained 5×10^5 CFU/mL of target bacterium in a total volume of 100 μL. Plates were incubated overnight at 37° C. The following day, plates were evaluated for a visual change in growth to determine the MIC. The concentration value corresponding to the first row that no longer had visible bacterial growth, as evaluated by turbidity in the wells, was recorded as the MIC. MIC values were representative of at least biological duplicates, each made up of technical triplicates.

A. baumannii = assay: MIC by broth dilution, A. baumannii; type: cell-based; conditions: Acinetobacter baumannii; Mueller-Hinton broth, overnight 37° C.; Table 1; read-out: MIC (μg/mL) A. baumannii
Protocol: as §1

| MIC (S. aureus) [µg/mL] | MIC (A. baumannii) [µg/mL] | Structure (SMILES) |
| --- | --- | --- |
| 3 to 30 | > 30 | CCCCCCOc1ccccc1C(=O)Nc1ccc(S(=O)(=O)NCC[N+](CC)(CC)CCCCC)cc1.[Br-] [Compound 92, N,N-Diethyl-N-(2-((4-(2-(hexyloxy)benzamido)phenyl)sulfonamido)ethyl)pentan-1-aminium bromide] |
| 3 to 30 | 3 to 30 | CCCCCCCCOc1ccccc1C(=O)Nc1ccc(C(=O)OCCC[N+](C)(CC)CC)cc1.[I-] [Compound 45, N,N-Diethyl-N-methyl-3-((4-(2-(octyloxy)benzamido)benzoyl)oxy)propan-1-aminium iodide] |
| < 3 | 3 to 30 | CCCCCCCOc1ccccc1C(=O)Nc1ccc(C(=O)OCC[N+](CC)(CC)CCCC)cc1.[Br-] [Compound 70, N,N-Diethyl-N-(2-((4-(2-(heptyloxy)benzamido)benzoyl)oxy)ethyl)butan-1-aminium bromide] |
| < 3 | 3 to 30 | CCCCCCCCOc1ccccc1C(=O)Nc1ccc(C(=O)OCC[N+]2(CCC)CCCC2)cc1.[Br-] [Compound 56, 1-(2-((4-(2-(Octyloxy)benzamido)benzoyl)oxy)ethyl)-1-propylpyrrolidin-1-ium bromide] |
| > 30 | > 30 | CCCCCCCCOc1ccc(OCCCCCCCC)c(C(=O)Nc2ccc(C(=O)OCC[N+](C)(CC)CC)cc2)c1.[Br-] [Compound 16, 2-((4-(2,5-Bis(octyloxy)benzamido)benzoyl)oxy)-N,N-diethyl-N-methylethan-1-aminium bromide] |
| 3 to 30 | > 30 | CCCCCCCCOc1ccccc1C(=O)Nc1ccc(C(=O)OCC[N+](CC)(CC)CC)cc1.[Br-] [Compound 29, N,N,N-Triethyl-2-((4-(2-(octyloxy)benzamido)benzoyl)oxy)ethan-1-aminium bromide] |
| 3 to 30 | > 30 | CCCCCCCCOc1ccccc1C(=O)Nc1ccc(C(=O)NC2CC[N+](C)(CC)CC2)cc1.[Br-] (centres unmarked) [Compound 80, 1-Ethyl-1-methyl-4-(4-(2-(octyloxy)benzamido)benzamido)piperidin-1-ium bromide] |
| 3 to 30 | > 30 | CCCCCCCCCCOc1ccccc1C(=O)Nc1ccc(C(=O)OCC[N+](C)(CC)CC)cc1.[Br-] [Compound 24, 2-((4-(2-(Decyloxy)benzamido)benzoyl)oxy)-N,N-diethyl-N-methylethan-1-aminium bromide] |
| < 3 | 3 to 30 | CCCCCCCCOc1ccccc1C(=O)Nc1ccc(C(=O)OCC[N+](CC)(CC)CCCC)cc1.[Br-] [Compound 34, N,N-Diethyl-N-(2-((4-(2-(octyloxy)benzamido)benzoyl)oxy)ethyl)butan-1-aminium bromide] |
| < 3 | > 30 | CCCCCCCCOc1ccccc1C(=O)Nc1ccc(C(=O)OCC[N+](CC)(CC)Cc2cccc(C(F)(F)F)c2)cc1.[Br-] [Compound 40, N,N-Diethyl-2-((4-(2-(octyloxy)benzamido)benzoyl)oxy)-N-(3-(trifluoromethyl)-benzyl)ethan-1-aminium bromide] |
| 3 to 30 | > 30 | CCCCCOc1ccccc1C(=O)Nc1ccc(C(=O)OCC[N+](CC)(CC)CCCCC)cc1.[Br-] [Compound 65, N,N-Diethyl-N-(2-((4-(2-(pentyloxy)benzamido)benzoyl)oxy)ethyl)pentan-1-aminium bromide] |
| 3 to 30 | > 30 | CCCCCCCCOc1ccccc1C(=O)Nc1ccc(C(=O)NC2CC[N+](CCC)(CCC)CC2)cc1.[Br-] [Compound 75, 4-(4-(2-(Octyloxy)benzamido)benzamido)-1,1-dipropylpiperidin-1-ium bromide] |
| > 30 | > 30 | CCCCCCCCOc1ccccc1C(=O)Nc1ccc(C(=O)N(C)CC[N+](C)(CC)CC)cc1.[Br-] [Compound 55, N,N-Diethyl-N-methyl-2-(N-methyl-4-(2-(octyloxy)benzamido)benzamido)ethan-1-aminium bromide] |
